In general, inhibition refers to the percentage by which the read-out fell short of the control. The term pIC50 denotes the negative decadic logarithm of the IC50, by convention in mol/L.

In assay [1] the test system is Mus musculus. The assay is described as follows: Antiinflammatory activity in DBA/1 mouse model of collagen-induced arthritis assessed as reduction in arthritis score at 10 mg/kg/day, po administered starting from day 30. Type of assay: functional, organism-based.
For assay [2], the system named is Mus musculus. Description: Antiinflammatory activity in DBA/1 mouse model of collagen-induced arthritis assessed as CD4 and CD8-double positive cell expression in lymph node derived lymphocytes at 10 mg/kg/day, po administered starting from day 30 and measured on day 63 by APC-conjugated anti-mouse CD4 and FITC-conjugated anti-mouse CD8 staining based flow cytometry relative to control. To be noted: time 33 day. The format is functional. (Flow cytometry measures light scatter and fluorescence of single cells or particles in a stream.)

For assay [3], the system named is Rattus norvegicus. Description: Antiinflammatory activity in Lewis rat model of adjuvant-induced arthritis assessed as improvement in disease pathology at 10 mg/kg/day, po administered starting from day 14 and measured on day 28 by H and E/Safranin O staining based microscopic analysis. Type of assay: functional, organism-based. To be noted: time 14.0 day.
Assay [4] has as its system Mus musculus. The assay is described as follows: Antiinflammatory activity in DBA/1 mouse model of collagen-induced arthritis assessed as CD4 and CD8- double positive cell expression in spleen lymphocytes at 10 mg/kg/day, po administered starting from day 30 and measured on day 63 by APC-conjugated anti-mouse CD4 and FITC-conjugated anti-mouse CD8 staining based flow cytometry relative to control. Type of assay: functional. To be noted: time 33 day.

The subject of assay [5] is Mus musculus. Description: Antiinflammatory activity in DBA/1 mouse model of collagen-induced arthritis assessed as reduction in TNFalpha mRNA expression in joint tissue at 10 mg/kg/day, po administered starting from day 30 and measured on day 63 by RT-PCR analysis. The format is functional, organism-based. To be noted: time 33.0 day.
Assay [6] deals with Rattus norvegicus. Description: Antiinflammatory activity in Lewis rat model of adjuvant-induced arthritis assessed as reduction in disease symptom at 10 mg/kg/day, po administered starting from day 14. Type of assay: functional, organism-based.
In assay [7] the test system is RAW264.7. Description: Inhibition of LPS-induced nitric oxide production in mouse RAW264.7 cells at 10 uM measured after 24 hrs by Griess reagent based assay relative to control. The format is functional.
Assay [8] concerns Mus musculus. Description: Antiinflammatory activity in DBA/1 mouse model of collagen-induced arthritis assessed as reduction in IL-1beta mRNA expression in joint tissue at 10 mg/kg/day, po administered starting from day 30 and measured on day 63 by RT-PCR analysis. To be noted: time 33.0 day. Type of assay: functional, organism-based.
Assay [9] relates to RAW264.7. The assay is described as follows: Inhibition of LPS-induced iNOS expression in mouse RAW264.7 cells measured after 24 hrs by Western blot analysis. The format is functional, cell-based. (In general: A western blot detects proteins with antibodies after separation by electrophoresis.)
The subject of assay [10] is Mus musculus. Description: Antiinflammatory activity in DBA/1 mouse model of collagen-induced arthritis assessed as reduction in paw redness at 10 mg/kg/day, po administered starting from day 30. Type of assay: functional, organism-based.
The test system of assay [11] is Mus musculus. The assay is described as follows: Antiinflammatory activity in DBA/1 mouse model of collagen-induced arthritis assessed as CD8-positive cell expression in lymph node derived lymphocytes at 10 mg/kg/day, po administered starting from day 30 and measured on day 63 by APC-conjugated anti-mouse CD4 and FITC-conjugated anti-mouse CD8 staining based flow cytometry relative to control. Type of assay: functional. To be noted: time 33 day.

Assay [12] concerns RAW264.7. Description: Cytotoxicity against mouse RAW264.7 cells assessed as reduction in cell viability measured after 24 hrs by MTT assay. The format is cell-based. To be noted: RAW264.7, 24 h.
For assay [13], the system named is Mus musculus. Description: Antiinflammatory activity in DBA/1 mouse model of collagen-induced arthritis assessed as reduction in IL-6 mRNA expression in joint tissue at 10 mg/kg/day, po administered starting from day 30 and measured on day 63 by RT-PCR analysis. The format is functional, organism-based. The following applies: time 33.0 day.
Assay [14] relates to Mus musculus. The assay is described as follows: Antiinflammatory activity in DBA/1 mouse model of collagen-induced arthritis assessed as appearance of intact joint structure at 10 mg/kg/day, po administered starting from day 30 and measured on day 63 by H and E/Safranin O staining based microscopic analysis. The following applies: time 33.0 day. Type of assay: functional, organism-based.

Assay [15] has as its system Mus musculus. The assay is described as follows: Antiinflammatory activity in DBA/1 mouse model of collagen-induced arthritis assessed as CD4-positive cell expression in spleen lymphocytes at 10 mg/kg/day, po administered starting from day 30 and measured on day 63 by APC-conjugated anti-mouse CD4 and FITC-conjugated anti-mouse CD8 staining based flow cytometry relative to control. The format is functional. To be noted: time 33 day.

The test system of assay [16] is Mus musculus. The assay is described as follows: Antiinflammatory activity in DBA/1 mouse model of collagen-induced arthritis assessed as CD8-positive cell expression in spleen lymphocytes at 10 mg/kg/day, po administered starting from day 30 and measured on day 63 by APC-conjugated anti-mouse CD4 and FITC-conjugated anti-mouse CD8 staining based flow cytometry relative to control. Type of assay: functional. To be noted: time 33 day.

The test system of assay [17] is RAW264.7. The assay is described as follows: Inhibition of LPS-induced nitric oxide production in mouse RAW264.7 cells measured after 24 hrs by Griess reagent based assay. Type of assay: functional, cell-based. To be noted: RAW264.7, 24 h. (In general: The Griess reaction detects nitrite, a stable product of nitric oxide.)
In assay [18] the test system is Mus musculus. The assay is described as follows: Antiinflammatory activity in DBA/1 mouse model of collagen-induced arthritis assessed as reduction in cartilage destruction at 10 mg/kg/day, po administered starting from day 30 and measured on day 63 by H and E/Safranin O staining based microscopic analysis. Type of assay: functional, organism-based. The following applies: time 33.0 day.

Assay [19] relates to Rattus norvegicus. The assay is described as follows: Antiinflammatory activity in Lewis rat model of adjuvant-induced arthritis assessed as reduction in arthritis score at 10 mg/kg/day, po administered starting from day 14. The format is functional, organism-based.
Assay [20] deals with Mus musculus. The assay is described as follows: Antiinflammatory activity in DBA/1 mouse model of collagen-induced arthritis assessed as CD4-positive cell expression in lymph node derived lymphocytes at 10 mg/kg/day, po administered starting from day 30 and measured on day 63 by APC-conjugated anti-mouse CD4 and FITC-conjugated anti-mouse CD8 staining based flow cytometry relative to control. The format is functional. The following applies: time 33 day.

The structures appear in SMILES notation. pIC50: −log10 of the molar value. Active and inactive are the calls of the source. The rule behind the calls is not given here.

For the molecule `COc1cc(O)c(C(=O)/C=C/c2ccc(OCCCN3CCOCC3)c(OC)c2)c(OC)c1`, the outcome in the assay on Mus musculus [1], in the assay on Rattus norvegicus [3], in the assay with Mus musculus [5], with Rattus norvegicus [6], with Mus musculus [8] and in the assay on Mus musculus [10] was Active. The result in the assay with Mus musculus [13], in the assay on Mus musculus [14], with Mus musculus [18] and in the assay on Rattus norvegicus [19] was Active. The Activity with Mus musculus [2] is listed as 2.13%; with Mus musculus [4] it was 0.527%; in the assay on Mus musculus [11], 27.4%; in the assay with Mus musculus [15], 39.1%; with Mus musculus [16], 28.7%; with Mus musculus [20], 29.3%. Further, the inhibition at 10 µM in the assay with RAW264.7 [7] came to 84%. Besides, in the assay on RAW264.7 [9], the inhibition entry was “Dose-dependent effect”. The results for the pIC50 in the assay on RAW264.7 [12] and in the assay with RAW264.7 [17] were < 4.10 and 5.19, respectively.

The values above are taken from ChEMBL document CHEMBL4765281, “Development of a novel nitric oxide (NO) production inhibitor with potential therapeutic effect on chronic inflammation” (Eur J Med Chem, 2020).
